Assay results taken from ChEMBL document CHEMBL4507268 (2021).

Key:
Settings in all cases: Compound concentration 1.0 uM
[1] = target: Serine/threonine-protein kinase PLK1 (Homo sapiens) (UniProt P53350)
[2] = target: Protein kinase C alpha type (Homo sapiens) (UniProt P17252)
[3] = target: CDK18/Cyclin Y (Homo sapiens) (UniProt Q07002+Q8ND76)
[4] = target: Fibroblast growth factor receptor 4 (Homo sapiens) (UniProt P22455)
[5] = target: T1, Serine/threonine-protein kinase ULK2 (Homo sapiens) (UniProt Q8IYT8)
T1 sequence (whole entry): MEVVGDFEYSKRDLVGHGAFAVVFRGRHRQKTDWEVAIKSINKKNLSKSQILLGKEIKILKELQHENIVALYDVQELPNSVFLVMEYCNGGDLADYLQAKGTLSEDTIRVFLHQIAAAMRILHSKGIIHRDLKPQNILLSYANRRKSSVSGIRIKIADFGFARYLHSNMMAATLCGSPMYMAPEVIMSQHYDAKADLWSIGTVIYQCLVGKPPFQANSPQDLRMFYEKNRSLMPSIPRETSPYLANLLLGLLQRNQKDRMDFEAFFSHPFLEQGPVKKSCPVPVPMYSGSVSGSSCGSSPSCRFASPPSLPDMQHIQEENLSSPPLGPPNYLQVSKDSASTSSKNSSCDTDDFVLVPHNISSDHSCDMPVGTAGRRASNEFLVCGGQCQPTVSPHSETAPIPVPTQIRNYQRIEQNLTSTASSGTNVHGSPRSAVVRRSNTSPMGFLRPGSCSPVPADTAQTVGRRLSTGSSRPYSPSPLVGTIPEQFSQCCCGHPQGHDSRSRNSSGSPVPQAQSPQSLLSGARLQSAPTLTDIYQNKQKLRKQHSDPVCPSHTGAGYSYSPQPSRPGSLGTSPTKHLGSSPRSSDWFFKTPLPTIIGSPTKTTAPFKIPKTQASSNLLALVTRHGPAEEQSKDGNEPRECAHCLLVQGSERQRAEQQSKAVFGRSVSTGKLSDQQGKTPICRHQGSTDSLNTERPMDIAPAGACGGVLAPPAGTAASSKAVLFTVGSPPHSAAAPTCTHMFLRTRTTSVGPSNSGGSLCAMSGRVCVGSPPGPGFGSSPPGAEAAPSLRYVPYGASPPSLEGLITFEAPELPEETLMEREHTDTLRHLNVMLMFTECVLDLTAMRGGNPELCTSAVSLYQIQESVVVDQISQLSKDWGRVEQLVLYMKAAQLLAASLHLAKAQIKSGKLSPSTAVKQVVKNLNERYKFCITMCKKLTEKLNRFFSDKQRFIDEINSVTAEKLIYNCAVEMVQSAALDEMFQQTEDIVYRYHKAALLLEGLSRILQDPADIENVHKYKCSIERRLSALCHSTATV

[6] = target: Tyrosine-protein kinase Lyn (Homo sapiens) (UniProt P07948)
Chain of Tyrosine-protein kinase Lyn (Homo sapiens) (P07948 2-512 limits assumed): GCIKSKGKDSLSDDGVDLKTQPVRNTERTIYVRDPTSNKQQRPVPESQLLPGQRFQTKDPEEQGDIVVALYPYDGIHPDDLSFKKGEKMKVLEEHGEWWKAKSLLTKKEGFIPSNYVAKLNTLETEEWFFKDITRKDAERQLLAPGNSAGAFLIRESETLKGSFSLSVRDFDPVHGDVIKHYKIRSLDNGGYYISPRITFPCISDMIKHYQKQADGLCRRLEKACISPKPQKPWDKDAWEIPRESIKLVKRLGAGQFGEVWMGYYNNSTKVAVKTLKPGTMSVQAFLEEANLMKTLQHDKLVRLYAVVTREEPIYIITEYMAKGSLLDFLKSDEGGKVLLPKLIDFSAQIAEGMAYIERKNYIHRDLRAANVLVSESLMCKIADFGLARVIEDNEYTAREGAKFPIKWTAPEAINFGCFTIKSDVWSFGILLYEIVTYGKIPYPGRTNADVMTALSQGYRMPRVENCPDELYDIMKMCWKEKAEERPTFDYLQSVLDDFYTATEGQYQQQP

[7] = target: T2, Phosphatidylinositol 3-kinase C2 domain-containing subunit gamma (Homo sapiens) (UniProt O75747)
T2 sequence (whole entry): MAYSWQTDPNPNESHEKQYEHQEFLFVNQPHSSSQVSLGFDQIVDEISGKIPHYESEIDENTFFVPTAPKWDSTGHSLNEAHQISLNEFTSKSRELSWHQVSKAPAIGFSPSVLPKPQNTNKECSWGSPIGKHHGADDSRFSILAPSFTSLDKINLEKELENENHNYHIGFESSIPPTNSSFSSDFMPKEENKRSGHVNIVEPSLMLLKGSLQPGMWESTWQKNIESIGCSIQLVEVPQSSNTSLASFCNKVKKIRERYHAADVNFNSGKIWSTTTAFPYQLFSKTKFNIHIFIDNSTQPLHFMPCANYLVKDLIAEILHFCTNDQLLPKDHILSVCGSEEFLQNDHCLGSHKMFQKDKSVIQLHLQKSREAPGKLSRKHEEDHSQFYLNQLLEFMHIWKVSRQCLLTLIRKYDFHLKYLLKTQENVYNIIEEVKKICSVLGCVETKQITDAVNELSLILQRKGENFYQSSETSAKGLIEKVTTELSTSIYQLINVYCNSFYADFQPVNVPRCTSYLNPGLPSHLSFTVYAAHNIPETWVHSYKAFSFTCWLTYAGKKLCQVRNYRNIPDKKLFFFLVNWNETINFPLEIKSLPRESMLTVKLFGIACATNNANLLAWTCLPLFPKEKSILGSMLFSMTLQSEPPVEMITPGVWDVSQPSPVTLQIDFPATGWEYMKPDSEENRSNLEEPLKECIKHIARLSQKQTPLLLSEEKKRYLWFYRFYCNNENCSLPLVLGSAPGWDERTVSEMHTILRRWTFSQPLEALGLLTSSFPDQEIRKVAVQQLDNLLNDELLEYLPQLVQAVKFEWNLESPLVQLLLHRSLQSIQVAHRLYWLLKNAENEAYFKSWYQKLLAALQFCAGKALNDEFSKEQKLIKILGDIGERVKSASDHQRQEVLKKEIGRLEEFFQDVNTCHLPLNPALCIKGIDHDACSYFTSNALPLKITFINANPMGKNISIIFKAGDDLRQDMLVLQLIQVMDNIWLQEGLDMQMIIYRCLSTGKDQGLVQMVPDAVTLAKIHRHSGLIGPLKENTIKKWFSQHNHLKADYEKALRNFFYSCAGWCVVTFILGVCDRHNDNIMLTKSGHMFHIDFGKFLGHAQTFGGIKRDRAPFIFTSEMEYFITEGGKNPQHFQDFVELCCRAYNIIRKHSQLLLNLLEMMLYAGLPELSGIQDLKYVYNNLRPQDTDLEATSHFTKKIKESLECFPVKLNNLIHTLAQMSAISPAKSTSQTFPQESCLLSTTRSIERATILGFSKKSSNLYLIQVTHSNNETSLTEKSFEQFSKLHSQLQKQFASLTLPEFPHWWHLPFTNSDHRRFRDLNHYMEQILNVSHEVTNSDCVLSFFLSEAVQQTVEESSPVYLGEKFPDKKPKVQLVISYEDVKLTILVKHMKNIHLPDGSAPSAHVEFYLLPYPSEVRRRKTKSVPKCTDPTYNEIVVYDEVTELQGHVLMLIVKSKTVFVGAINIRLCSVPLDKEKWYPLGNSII

Measured: % residual kinase activity

Chain of Fibroblast growth factor receptor 4 (Homo sapiens) (P22455 22-802 limits assumed): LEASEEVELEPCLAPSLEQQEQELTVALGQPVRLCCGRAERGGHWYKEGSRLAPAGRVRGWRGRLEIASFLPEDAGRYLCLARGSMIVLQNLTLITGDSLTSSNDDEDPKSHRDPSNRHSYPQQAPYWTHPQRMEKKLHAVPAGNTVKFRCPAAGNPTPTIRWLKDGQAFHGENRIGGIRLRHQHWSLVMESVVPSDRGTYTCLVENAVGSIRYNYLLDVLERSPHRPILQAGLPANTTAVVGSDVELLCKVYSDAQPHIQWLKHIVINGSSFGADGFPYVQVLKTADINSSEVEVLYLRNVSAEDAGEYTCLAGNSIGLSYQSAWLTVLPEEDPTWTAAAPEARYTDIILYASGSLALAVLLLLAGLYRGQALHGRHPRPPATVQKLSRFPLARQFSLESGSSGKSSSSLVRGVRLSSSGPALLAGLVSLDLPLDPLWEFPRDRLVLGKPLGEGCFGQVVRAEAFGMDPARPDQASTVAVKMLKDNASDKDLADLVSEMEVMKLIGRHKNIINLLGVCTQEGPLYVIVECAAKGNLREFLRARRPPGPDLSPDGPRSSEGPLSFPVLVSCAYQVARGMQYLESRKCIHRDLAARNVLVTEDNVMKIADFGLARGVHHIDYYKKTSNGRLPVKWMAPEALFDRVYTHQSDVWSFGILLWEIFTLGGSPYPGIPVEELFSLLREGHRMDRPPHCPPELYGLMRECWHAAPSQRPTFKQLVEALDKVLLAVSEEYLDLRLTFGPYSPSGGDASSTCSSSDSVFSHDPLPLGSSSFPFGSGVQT
Chain of Serine/threonine-protein kinase PLK1 (Homo sapiens) (P53350 whole entry): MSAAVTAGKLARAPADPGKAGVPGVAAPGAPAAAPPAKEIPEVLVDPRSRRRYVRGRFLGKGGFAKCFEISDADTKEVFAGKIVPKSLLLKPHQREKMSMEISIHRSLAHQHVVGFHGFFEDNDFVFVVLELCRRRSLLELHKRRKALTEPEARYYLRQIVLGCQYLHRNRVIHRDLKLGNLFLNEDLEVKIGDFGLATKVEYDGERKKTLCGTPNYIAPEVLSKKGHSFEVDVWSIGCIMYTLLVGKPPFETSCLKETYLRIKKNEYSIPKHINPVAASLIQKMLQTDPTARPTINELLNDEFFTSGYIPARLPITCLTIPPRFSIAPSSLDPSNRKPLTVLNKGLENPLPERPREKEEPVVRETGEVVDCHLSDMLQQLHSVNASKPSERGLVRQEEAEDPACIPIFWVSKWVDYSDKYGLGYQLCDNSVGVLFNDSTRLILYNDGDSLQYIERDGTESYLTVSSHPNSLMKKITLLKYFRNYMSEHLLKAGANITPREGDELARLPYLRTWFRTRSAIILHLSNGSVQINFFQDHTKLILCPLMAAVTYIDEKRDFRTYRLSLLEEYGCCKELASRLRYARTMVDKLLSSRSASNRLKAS

CN1CCN(c2cnc3c(C4CCN(C(=O)c5ccc(OC(F)(F)F)cc5N)CC4)ncnc3c2)CC1 [BAY-885]
inactive: [1] 115% | [2] 107% | [3] 100% | [4] 96% | [5] 102% | [6] 100% | [7] 94%
